# Measured values from US12227488B2, “Small molecule degraders of Helios and methods of use” (DANA-FARBER CANCER INSTITUTE, INC., priority 2018, dated 2025).
# Tests used:
# CRBN and Helios (IKZF2) = target: T1, CRBN and Helios (IKZF2) (Homo sapiens, UniProt Q96SW2+Q9UKS7); assay: TR-FRET dimerization assay (CRBN-IKZF2 ternary complex formation); format: binding; settings: n=1
# T1 construct: His (N); Strep (N)
# Description: A focused library of imide analogs was synthesized and assessed for their ability to induce dimerization between CRBN and Helios in a time-resolved fluorescence energy transfer (TR-FRET) assay (FIG. 1A).
# Prior to TR-FRET measurements being conducted, the reactions were incubated for 15 min at rt. […] The TR-FRET signal of each data point was extracted by calculating the 520/490 nm ratios. Data from single measurements (n=1), each calculated as an average of at least three technical replicates per well per experiment are presented in Table 1.
# BODIPY-labeled CRBN in complex with Damage Specific DNA Binding Protein 1 (DDB1) harboring an internal deletion of the flexible BPB propeller (DDB1AB-CRBN) and in vitro biotinylated IKZF2 were treated with increasing concentrations of the indicated compounds in the presence of tracer amounts of Terbium-Streptavidin (Tb-SA). Compound-induced recruitment of IKZF2 to CRBN was quantified following the 520/490 TR-FRET ratio using a PHERAstar® plate reader (BMG) utilizing two synchronized PMTs to reduce background.
# IKZF2 = assay: Cellular degradation assay, eGFP-IKZF2Δ fusion with mCherry reporter in Flp-In 293 cells; format: cell-based; settings: for IKZF2 GFP/RFP Relative Abundance: 5 h incubation, n=1
# Description: (§1) IKZF1Δ, IKZF2Δ, GSPT1 and SALL4 ZnF1-2 were subcloned into mammalian pcDNA5/FRT Vector (Ampicillin and Hygromycin B resistant) modified to contain MCS-eGFP-P2A-mCherry. […] Following 2-3 passage cycle, FACS (FACSAria™ II, BD) was used to enrich for cells expressing eGFP and mCherry. Cells stably expressing the IKZF1Δ, IKZF2Δ, GSPT1 or SALL4 Znf1-2 GFP fusions with mCherry reporter were seeded at 30-50% confluency in 384-well plates with 50 μL FluoroBrite™ DMEM media (Thermo Fisher Scientific, A18967) containing 10% FBS per well a day before compound treatment. Compound titrations were dispensed using a D300e Digital Dispenser (HP), normalized to 0.5% DMSO, and incubated with cells for 5 hours.
# (§2) The resulting images were analyzed using CellProfiler™. A series of image analysis steps (‘image analysis pipeline’) was constructed. First, the red and green channels were aligned and cropped to target the middle of each well (to avoid analysis of heavily clumped cells at the edges), and a background illumination function was calculated for both red and green channels of each well individually and subtracted to correct for illumination variations across the 384-well plate from various sources of error. An additional step was then applied to the green channel to suppress the analysis of large auto fluorescent artifacts and enhance the analysis of cell specific fluorescence by way of selecting for objects under a given size, 30 A.U., and with a given shape, speckles. mCherry-positive cells were then identified in the red channel filtering for objects between 8-60 pixels in diameter and using intensity to distinguish between clumped objects. The green channel was then segmented into GFP positive and negative areas and objects were labeled as GFP positive if at least 40% of it overlapped with a GFP positive area. The fraction of GFP-positive cells/mCherry-positive cells in each well was then calculated, and the green and red images were rescaled for visualization.
# (§3) The degradation assay was performed as described above. […] Degradation was measured after 5 h of compound treatment and the concentrations that lead to half degradation at 5 h (DC50,5 h) were calculated using the nonlinear fit variable slope model (GraphPad Software).
# IKZF1 = target: T2, IKZF1 (Homo sapiens, UniProt Q13422); assay: Cellular degradation assay, eGFP-IKZF1Δ fusion with mCherry reporter in Flp-In 293 cells; format: cell-based; settings: for IKZF1 GFP/RFP Relative Abundance: 5 h incubation, n=1
# T2 construct: expressed in transfected cells; host or cells: Flp-In 293
# T2 sequence (Q13422 83-213 isoform Q13422-7 limits assumed): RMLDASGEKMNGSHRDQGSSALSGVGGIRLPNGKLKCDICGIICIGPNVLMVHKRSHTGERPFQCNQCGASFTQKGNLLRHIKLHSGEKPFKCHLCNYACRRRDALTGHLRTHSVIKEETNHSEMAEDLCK
# T2 sequence (Q96SW2 whole entry partner, the tested form may be a part): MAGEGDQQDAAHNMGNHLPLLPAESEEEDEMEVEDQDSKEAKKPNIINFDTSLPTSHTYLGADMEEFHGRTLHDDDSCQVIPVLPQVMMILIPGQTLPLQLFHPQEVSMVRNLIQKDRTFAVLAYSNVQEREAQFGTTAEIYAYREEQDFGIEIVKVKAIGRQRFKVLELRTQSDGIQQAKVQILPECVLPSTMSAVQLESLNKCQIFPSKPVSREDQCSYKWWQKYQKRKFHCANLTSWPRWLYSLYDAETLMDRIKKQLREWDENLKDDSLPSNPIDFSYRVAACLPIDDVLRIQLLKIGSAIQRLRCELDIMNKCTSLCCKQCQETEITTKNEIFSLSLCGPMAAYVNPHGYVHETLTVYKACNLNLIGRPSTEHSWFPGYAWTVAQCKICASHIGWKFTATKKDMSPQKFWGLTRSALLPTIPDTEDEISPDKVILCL
# T2 sequence (Q16531 2-1140 partner limits assumed): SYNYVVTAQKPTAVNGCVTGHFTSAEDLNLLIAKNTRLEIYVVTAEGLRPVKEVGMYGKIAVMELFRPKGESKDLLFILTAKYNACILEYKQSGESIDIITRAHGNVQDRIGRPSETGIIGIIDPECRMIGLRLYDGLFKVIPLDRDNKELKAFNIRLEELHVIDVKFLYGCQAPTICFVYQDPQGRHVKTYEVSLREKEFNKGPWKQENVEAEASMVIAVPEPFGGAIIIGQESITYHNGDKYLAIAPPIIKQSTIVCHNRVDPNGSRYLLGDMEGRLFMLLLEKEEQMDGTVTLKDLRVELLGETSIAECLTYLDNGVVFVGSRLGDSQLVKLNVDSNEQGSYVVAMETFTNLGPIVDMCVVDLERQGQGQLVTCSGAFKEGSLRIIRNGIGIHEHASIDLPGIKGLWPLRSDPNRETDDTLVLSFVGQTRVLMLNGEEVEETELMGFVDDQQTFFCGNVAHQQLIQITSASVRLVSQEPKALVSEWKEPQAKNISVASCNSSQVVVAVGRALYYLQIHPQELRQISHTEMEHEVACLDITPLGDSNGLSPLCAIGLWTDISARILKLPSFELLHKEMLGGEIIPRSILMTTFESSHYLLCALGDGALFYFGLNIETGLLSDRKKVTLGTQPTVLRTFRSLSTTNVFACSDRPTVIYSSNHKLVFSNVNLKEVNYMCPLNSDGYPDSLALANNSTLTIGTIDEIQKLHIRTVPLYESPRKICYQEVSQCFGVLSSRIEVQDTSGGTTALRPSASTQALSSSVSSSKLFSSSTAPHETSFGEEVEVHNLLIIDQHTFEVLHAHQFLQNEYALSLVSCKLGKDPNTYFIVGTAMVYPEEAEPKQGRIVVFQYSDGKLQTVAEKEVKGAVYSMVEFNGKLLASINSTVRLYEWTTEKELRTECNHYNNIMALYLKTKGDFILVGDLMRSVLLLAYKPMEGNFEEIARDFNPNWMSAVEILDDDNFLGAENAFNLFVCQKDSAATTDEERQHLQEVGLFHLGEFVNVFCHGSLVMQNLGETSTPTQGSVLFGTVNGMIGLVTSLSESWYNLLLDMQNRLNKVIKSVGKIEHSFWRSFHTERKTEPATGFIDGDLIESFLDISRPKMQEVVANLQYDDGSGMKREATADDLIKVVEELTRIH
# Description: as §1, §2, §3
# [1] = compound concentration 6.6667E−05
# [2] = compound concentration 6.6667E−06
# [3] = compound concentration 6.6667E−07 (667 nM)
# [4] = compound concentration 2.00E−05
# [5] = compound concentration 2.00E−06
# [6] = compound concentration 2.00E−07
# [7] = half degradation at 5 h (DC50,5 h), triplicate, 11 point dose response
# T1 sequence (Q96SW2 whole entry): as the sequence (Q96SW2 whole entry partner, the tested form may be a part) above
# T1 sequence (Q9UKS7 whole entry): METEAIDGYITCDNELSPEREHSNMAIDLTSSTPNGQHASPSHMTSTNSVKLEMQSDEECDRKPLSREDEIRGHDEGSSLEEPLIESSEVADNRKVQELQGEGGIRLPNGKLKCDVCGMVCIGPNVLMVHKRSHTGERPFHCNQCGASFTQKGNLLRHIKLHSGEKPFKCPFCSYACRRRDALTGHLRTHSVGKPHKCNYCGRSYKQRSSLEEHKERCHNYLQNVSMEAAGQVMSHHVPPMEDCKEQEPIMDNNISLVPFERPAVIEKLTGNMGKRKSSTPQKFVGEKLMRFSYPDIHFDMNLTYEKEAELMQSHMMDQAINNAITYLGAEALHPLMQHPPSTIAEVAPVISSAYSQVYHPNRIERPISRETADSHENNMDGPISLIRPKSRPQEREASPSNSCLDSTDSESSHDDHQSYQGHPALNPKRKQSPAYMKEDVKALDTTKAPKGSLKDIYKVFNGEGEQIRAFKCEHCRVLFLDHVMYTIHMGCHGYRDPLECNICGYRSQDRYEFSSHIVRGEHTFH
Compound,TR-FRET-IKZF2 (Normalized to CC-885) (CRBN and Helios (IKZF2); [1]),TR-FRET-IKZF2 (Normalized to CC-885) (CRBN and Helios (IKZF2); [2]),TR-FRET-IKZF2 (Normalized to CC-885) (CRBN and Helios (IKZF2); [3]),IKZF2 GFP/RFP Relative Abundance (IKZF2; [4]),IKZF2 GFP/RFP Relative Abundance (IKZF2; [5]),IKZF2 GFP/RFP Relative Abundance (IKZF2; [6]),IKZF1 GFP/RFP Relative Abundance (IKZF1; [4]),IKZF1 GFP/RFP Relative Abundance (IKZF1; [5]),IKZF1 GFP/RFP Relative Abundance (IKZF1; [6]),DC50 (IKZF2; [7]) [nM],"potency of IKZF1 degradation, in words (IKZF1; Table 3 summary)",DC50 (IKZF1; [7]) [nM]
"Cc1ccc(NC(=O)NCc2cc(NC3=CC(=O)N(C4CCC(=O)NC4=O)C3=O)ccc2OC(=O)N(C)C)cc1Cl (stereo not drawn) [Compound 95, 2-((3-(3-chloro-4-methylphenyl)ureido)methyl)-4-((1-(2,6-dioxopiperidin-3-yl)-2,5-dioxo-2,5-dihydro-1H-pyrrol-3-yl)amino)phenyl Dimethylcarbamate]",0.124,0.109,0.094,1.070,1.058,1.029,0.944,0.904,0.960,–,–,–
"Cc1ccc(NC(=O)NCc2cccc(OC3=CC(=O)N(C4CCC(=O)NC4=O)C3=O)c2)cc1Cl (stereo not drawn) [Compound 64, 1-(3-chloro-4-methylphenyl)-3-(3-((1-(2,6-dioxopiperidin-3-yl)-2,5-dioxo-2,5-dihydro-1H-pyrrol-3-yl)oxy)benzyl)urea]",0.030,0.025,0.021,1.087,1.038,1.061,1.154,1.077,1.122,–,–,–
"Cc1ccc(NC(=O)CNc2cccc(NC3=CC(=O)N(C4CCC(=O)NC4=O)C3=O)c2)cc1Cl (stereo not drawn) [Compound 78, N-(3-chloro-4-methylphenyl)-2-((3-((1-(2,6-dioxopiperidin-3-yl)-2,5-dioxo-2,5-dihydro-1H-pyrrol-3-yl)amino)phenyl)amino)acetamide]",–,–,–,–,–,–,–,–,–,2.2,most potent against IKZF1,1.9
"Cc1ccc(NC(=O)NCc2cc(NC(=O)N(C)C)cc(NC3=CC(=O)N(C4CCC(=O)NC4=O)C3=O)c2)cc1Cl (stereo not drawn) [Compound 112, 3-(3-((3-(3-chloro-4-methylphenyl)ureido)methyl)-5-((1-(2,6-dioxopiperidin-3-yl)-2,5-dioxo-2,5-dihydro-1H-pyrrol-3-yl)amino)phenyl)-1,1-dimethylurea]",0.048,0.035,0.035,1.081,1.047,1.034,0.726,0.949,1.002,–,–,–
"Cc1cc(CNC(=O)NC(C)c2cccc(NC3=CC(=O)N(C4CCC(=O)NC4=O)C3=O)c2)ccc1Cl (stereo not drawn) [Compound 120, 1-(4-chloro-3-methylbenzyl)-3-(1-(3-((1-(2,6-dioxopiperidin-3-yl)-2,5-dioxo-2,5-dihydro-1H-pyrrol-3-yl)amino)phenyl)ethyl)urea]",1.263,1.011,0.860,0.077,0.117,0.157,0.094,0.110,0.092,–,–,–
"Cc1ccc(CNC(=O)Cc2cccc(NC3=CC(=O)N(C4CCC(=O)NC4=O)C3=O)c2)cc1Cl (stereo not drawn) [Compound 123, N-(3-chloro-4-methylbenzyl)-2-(3-((1-(2,6-dioxopiperidin-3-yl)-2,5-dioxo-2,5-dihydro-1H-pyrrol-3-yl)amino)phenyl)acetamide]",1.234,1.087,0.960,0.065,0.093,0.078,0.083,0.057,0.092,–,–,–
"O=C1CCC(N2C(=O)C=C(Nc3cccc(CCC(=O)Nc4ccc(C(F)(F)F)c(Cl)c4)c3)C2=O)C(=O)N1 (stereo not drawn) [Compound 129, N-(3-chloro-4-(trifluoromethyl)phenyl)-3-(3-((1-(2,6-dioxopiperidin-3-yl)-2,5-dioxo-2,5-dihydro-1H-pyrrol-3-yl)amino)phenyl)propanamide]",1.626,1.551,1.583,0.063,0.013,0.027,–,–,–,–,–,–
"Cc1ccc(N(C)C(=O)CCc2cccc(NC3=CC(=O)N(C4CCC(=O)NC4=O)C3=O)c2)cc1Cl (stereo not drawn) [Compound 127, N-(3-chloro-4-methylphenyl)-3-(3-((1-(2,6-dioxopiperidin-3-yl)-2,5-dioxo-2,5-dihydro-1H-pyrrol-3-yl)amino)phenyl)-N-methylpropanamide]",1.390,1.362,1.195,0.266,0.047,0.060,0.313,0.079,0.079,–,–,–
"Cc1ccc(NC(=O)Nc2cccc3c(NC4=CC(=O)N(C5CCC(=O)NC5=O)C4=O)cccc23)cc1Cl (stereo not drawn) [Compound 124, 1-(3-chloro-4-methylphenyl)-3-(5-((1-(2,6-dioxopiperidin-3-yl)-2,5-dioxo-2,5-dihydro-1H-pyrrol-3-yl)amino)naphthalen-1-yl)urea]",0.159,0.130,0.077,0.829,1.015,0.985,0.689,0.978,1.005,–,–,–
Cc1ccc(NC(=O)CC(C)c2cccc(NC3=CC(=O)N(C4CCC(=O)NC4=O)C3=O)c2)cc1Cl (stereo not drawn) [Compound 137],1.665,1.677,1.665,0.023,0.009,0.011,–,–,–,–,–,–
"Cc1ccc(CNC(=O)c2cccc(NC3=CC(=O)N(C4CCC(=O)NC4=O)C3=O)c2)cc1Cl (stereo not drawn) [Compound 122, N-(3-chloro-4-methylbenzyl)-3-((1-(2,6-dioxopiperidin-3-yl)-2,5-dioxo-2,5-dihydro-1H-pyrrol-3-yl)amino)benzamide]",0.715,0.628,0.469,0.738,0.789,0.833,0.076,0.088,0.096,–,–,–
"CC(CC(=O)Nc1cccc(C(F)(F)F)c1)c1cccc(NC2=CC(=O)N(C3CCC(=O)NC3=O)C2=O)c1 (stereo not drawn) [Compound 140, 3-(3-((1-(2,6-dioxopiperidin-3-yl)-2,5-dioxo-2,5-dihydro-1H-pyrrol-3-yl)amino)phenyl)-N-(3-(trifluoromethyl)phenyl)butanamide]",2.291,1.72,1.626,0.174,0.017,0.013,–,–,–,–,–,–
